{"source": "paper PMC12711574", "about": "(Nature, 2025)", "key": {"[1]": {"biological_target": "T1, MOR–Rluc8 and Gαi1β1γ2–GFP2 (Homo sapiens, UniProt P35372+P63096)", "T1 sequence (P63096 2-354 limits assumed)": "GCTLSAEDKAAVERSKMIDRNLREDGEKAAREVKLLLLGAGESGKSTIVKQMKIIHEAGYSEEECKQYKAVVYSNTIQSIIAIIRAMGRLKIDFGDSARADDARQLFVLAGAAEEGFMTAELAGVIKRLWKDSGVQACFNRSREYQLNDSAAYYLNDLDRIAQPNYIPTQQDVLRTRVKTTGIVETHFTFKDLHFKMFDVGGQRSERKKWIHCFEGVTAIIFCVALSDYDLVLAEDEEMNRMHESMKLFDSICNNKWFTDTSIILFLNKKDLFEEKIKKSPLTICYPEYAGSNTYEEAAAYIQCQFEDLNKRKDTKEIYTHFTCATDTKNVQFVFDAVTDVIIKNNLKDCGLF", "T1 sequence (P35372 whole entry)": "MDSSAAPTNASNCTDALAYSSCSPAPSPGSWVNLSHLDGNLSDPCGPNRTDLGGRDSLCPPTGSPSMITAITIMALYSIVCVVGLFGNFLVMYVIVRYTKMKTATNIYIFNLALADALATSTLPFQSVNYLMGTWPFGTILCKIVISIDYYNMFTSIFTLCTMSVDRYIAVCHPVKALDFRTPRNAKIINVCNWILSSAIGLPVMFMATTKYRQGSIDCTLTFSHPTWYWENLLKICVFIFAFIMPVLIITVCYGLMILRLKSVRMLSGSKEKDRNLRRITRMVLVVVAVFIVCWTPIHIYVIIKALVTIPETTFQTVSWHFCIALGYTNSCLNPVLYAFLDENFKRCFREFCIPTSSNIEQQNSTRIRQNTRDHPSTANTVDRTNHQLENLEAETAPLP", "T1 sequence (P62873 2-340 partner limits assumed)": "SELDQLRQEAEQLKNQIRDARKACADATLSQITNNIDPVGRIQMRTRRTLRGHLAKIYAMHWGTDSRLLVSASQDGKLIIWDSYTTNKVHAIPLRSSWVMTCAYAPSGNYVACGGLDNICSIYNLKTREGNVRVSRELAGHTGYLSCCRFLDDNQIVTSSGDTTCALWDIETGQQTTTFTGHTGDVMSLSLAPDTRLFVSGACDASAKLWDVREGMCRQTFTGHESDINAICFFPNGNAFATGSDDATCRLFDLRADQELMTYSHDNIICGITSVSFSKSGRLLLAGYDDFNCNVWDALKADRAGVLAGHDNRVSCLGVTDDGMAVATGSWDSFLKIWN", "T1 sequence (P59768 2-68 partner limits assumed)": "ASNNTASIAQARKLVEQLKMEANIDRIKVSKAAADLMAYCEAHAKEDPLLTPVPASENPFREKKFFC", "type": "cell-based"}, "[2]": {"biological_target": "T1, MOR–Rluc8 and Gαi1β1γ2–GFP2", "type": "cell-based", "details": "MOR in the apo state, mean ± s.d."}}, "note": "Where two headings read alike, the source gives them in different places."}
{"smiles": "C[C@H]1CN(C[C@H](Cc2ccccc2)C(=O)NCC(=O)O)CC[C@@]1(C)c1cccc(O)c1", "note": "[Alvimopan]", "values": [{"measurement": "signal changes", "setting": "[1]", "result": "too small to interpret"}]}
{"smiles": "Nc1nc2c(ncn2[C@@H]2O[C@H](COP(=O)(O)OP(O)(O)=S)[C@@H](O)[C@H]2O)c(=O)[nH]1", "note": "[GDPβS]", "values": [{"measurement": "EC50", "setting": "[2]; read-out: GDPβS EC50", "result": "57 ± 14", "unit": "nM"}]}
{"smiles": "Nc1nc2c(ncn2[C@@H]2O[C@H](COP(=O)(O)OP(=O)(O)OP(O)(O)=S)[C@@H](O)[C@H]2O)c(=O)[nH]1", "note": "[GTPγS]", "values": [{"measurement": "EC50", "setting": "[2]; read-out: GTPγS EC50", "result": "3.8 ± 0.18", "unit": "nM"}]}
